# According to patent publication US20260364081A1, “METHOD FOR PREVENTING OR TREATING ATTENTION DEFICIT HYPERACTIVITY DISORDER (ADHD) AND FOR PREPARING A COMPOUND OR SALT THEREOF” (ASTROGEN, INC., priority 2023, published 2026):
# Where a name gives a salt, the structure may show the parent alone. Read-outs that look alike come from different tables or passages of the source.
# How the values were obtained:
# [1] = tested on: norepinephrine reuptake; settings: background statement, cited from earlier work
# [2] = Thermal stability test (content by HPLC, visual discoloration); assay type: physicochemical; settings: for Content at 0 weeks / remaining at 1344 h / Content after 8 weeks: HPLC; for Content at 0 weeks: start of storage at 40±2 °C and 75±5% RH; for remaining at 1344 h: solid, 75% rh, read-out: Content after 8 weeks; for remaining at 1344 h / Content after 8 weeks: 8 weeks at 40±2 °C and 75±5% RH, opaque glass vials; for Discoloration: visual, after 8 weeks at 40±2 °C and 75±5% RH; for Content after 8 weeks: 80640 min
# Method: 8 mg each of the viloxazine hydrochloride of Comparative Examples 1 and 2, and the novel salts of (S)-viloxazine of Examples 6 to 16 were placed into opaque glass vials and stored at 40±2 °C and 75±5% RH. After 8 weeks, each sample was taken out, its content was analyzed by high-performance liquid chromatography (HPLC), and the presence of discoloration was visually confirmed (Table 2).
# [3] = tested on: dopamine; settings: background statement; cited from earlier work
# [4] = background statement; cited from earlier work
# [5] = cited from earlier work
# [6] = tested on: 5HT2B receptor; settings: background statement; cited from earlier work
# [7] = tested on: attention-deficit/hyperactivity disorder (ADHD); settings: clinical trials, patients with ADHD, versus placebo; cited from earlier work
# [8] = tested on: CYP2D6; settings: background statement; cited from earlier work
# [9] = tested on: 5-HT2C receptor; settings: background statement; cited from earlier work
# [10] = target: norepinephrine receptor (Homo sapiens, UniProt P23975); settings: read-out: norepinephrine reuptake inhibition IC50, HEK-293T cells stably expressing the norepinephrine receptor, 30 min drug incubation, 37 °C, 30 min kinetic fluorescence reading
# Method: The norepinephrine reuptake ability in a cell line expressing the norepinephrine receptor was confirmed using a kit (Neurotransmitter Transporter Uptake Assay Kit, Molecular Devices) composed of a fluorescent material that mimics amine neurotransmitters and a masking dye.
# First, HEK-293T cells stably expressing the norepinephrine receptor were seeded in a 96-well Black/Clear Bottom Plate to contain 6×10^4 cells in 100 μl of cell culture medium per well. After incubating for 20 hours in a 37 °C, 5% CO2 incubator to allow the cells to properly attach and stabilize on the plate, the cell culture medium was removed, and 100 μl of an HBSS+0.1% BSA with 20 mM HEPES aqueous solution in which a drug of a target concentration was dissolved was dispensed into each well. For the control group, 100 μl of a drug-free buffer solution (HBSS+0.1% BSA with 20 mM HEPES aqueous solution) was dispensed. The plate was incubated for 30 minutes in a 37 °C, 5% CO2 incubator to allow the drug to sufficiently react with the receptor.
# Thereafter, fluorescence was measured for a total of 30 minutes in Kinetic reading mode at Ex/Em=440 nm/520 nm using a fluorescence plate reader (SpectraMax®). The measured fluorescence intensity value was converted into a value of “reuptake inhibition rate (%)” using the following formula, and then a dose-response curve was plotted through 4-parameter (Log) logistic regression, and the IC50 value for each drug was calculated and compared (FIGS. 4 and 5).
# Chain of norepinephrine receptor (P23975 whole entry): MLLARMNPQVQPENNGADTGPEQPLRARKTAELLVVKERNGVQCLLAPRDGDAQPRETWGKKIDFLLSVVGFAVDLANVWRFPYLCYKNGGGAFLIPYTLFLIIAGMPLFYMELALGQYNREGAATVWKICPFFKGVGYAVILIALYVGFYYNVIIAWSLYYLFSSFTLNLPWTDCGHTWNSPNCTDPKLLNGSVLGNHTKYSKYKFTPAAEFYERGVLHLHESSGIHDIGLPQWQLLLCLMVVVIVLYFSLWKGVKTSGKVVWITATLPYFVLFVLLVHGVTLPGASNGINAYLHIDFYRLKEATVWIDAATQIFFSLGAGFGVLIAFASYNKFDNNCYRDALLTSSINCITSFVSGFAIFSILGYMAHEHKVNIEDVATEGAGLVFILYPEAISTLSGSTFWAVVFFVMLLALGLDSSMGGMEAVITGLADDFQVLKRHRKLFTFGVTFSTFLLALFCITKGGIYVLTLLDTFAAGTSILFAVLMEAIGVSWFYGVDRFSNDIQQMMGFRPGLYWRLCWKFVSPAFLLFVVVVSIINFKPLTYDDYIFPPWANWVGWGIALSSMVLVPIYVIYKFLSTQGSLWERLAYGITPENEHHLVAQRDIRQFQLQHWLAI
Compound,Content at 0 weeks [2],IC50 [10],Content after 8 weeks [2],other results
"CCOc1ccccc1OCC1CNCCO1 (racemic) [Comparative Example 1, (R,S)-viloxazine hydrochloride]",99.5%,62.9 µM,,"norepinephrine reuptake inhibition (in words) ([1]; listed as Racemic viloxazine hydrochloride): selective inhibition of norepinephrine reuptake; norepinephrine reuptake inhibition (in words) ([1]; hydrochloride): selectively inhibits norepinephrine reuptake; remaining at 1344 h [2]: 98.7%; Discoloration ([2]; hydrochloride): discolored to an off-white color; effect on dopamine [3]: low effect on dopamine; route of excretion of metabolites [4]: majority of its metabolites are excreted through urine; suicidal ideation or suicide risk ([5]; during initial treatment or dosage adjustment): increased risk of suicidal ideation or suicide; risk in patients with bipolar disorder ([5]; patients with bipolar disorder): risk of worsening symptoms in patients with bipolar disorder; most common side effects ([5]; patients): drowsiness, reduced appetite, fatigue, nausea, and insomnia; heart rate and blood pressure ([5]; some of the patients administered viloxazine HCl): increase in heart rate and blood pressure; risk of drug abuse, dependence, or withdrawal symptoms ([5]; upon treatment discontinuation): low risk of drug abuse, dependence, or withdrawal symptoms; activity at 5HT2B receptor [6]: 5HT2B receptor antagonist; clinical efficacy in ADHD symptoms [7]: showed improved symptoms compared to patients who took a placebo; metabolizing enzyme [8]: metabolized through the CYP2D6 enzyme; activity at 5-HT2C receptor [9]: 5-HT2C receptor agonist"
"CCOc1ccccc1OC[C@H]1CNCCO1 [Comparative Example 2, (R)-viloxazine hydrochloride, reference compound]",99.2%,108 µM,,remaining at 1344 h [2]: 98.1%; Discoloration ([2]; hydrochloride): discolored to an off-white color
"CCOc1ccccc1OC[C@@H]1CNCCO1 [Example 6, (S)-viloxazine hydrochloride]",,,,Content at 0 weeks ([2]; hydrochloride): 99.5%; remaining at 1344 h [2]: 99.2%; IC50 ([10]; hydrochloride): 22.5 µM
"CCOc1ccccc1OC[C@@H]1CNCCO1 [Example 7, (S)-viloxazine sulfate]",99.3%,29.3 µM,98.6%,
"CCOc1ccccc1OC[C@@H]1CNCCO1 [Example 8, (S)-viloxazine hydrobromide]",,,,Content after 8 weeks ([2]; hydrobromide): 99.0%; Content at 0 weeks ([2]; hydrobromide): 99.2%; IC50 ([10]; hydrobromide): 38.6 µM
"CCOc1ccccc1OC[C@@H]1CNCCO1 [Example 9, (S)-viloxazine nitrate]",98.2%,42 µM,97.7%,
"CCOc1ccccc1OC[C@@H]1CNCCO1 [Example 10, (S)-viloxazine acetate]",99.6%,24.3 µM,99.3%,
"CCOc1ccccc1OC[C@@H]1CNCCO1 [Example 11, (S)-viloxazine trifluoroacetate]",99.0%,33.6 µM,98.5%,
"CCOc1ccccc1OC[C@@H]1CNCCO1 [Example 12, (S)-viloxazine oxalate]",99.1%,34.3 µM,98.6%,
"CCOc1ccccc1OC[C@@H]1CNCCO1 [Example 13, (S)-viloxazine fumarate]",99.0%,36.1 µM,98.5%,
"CCOc1ccccc1OC[C@@H]1CNCCO1 [Example 14, (S)-viloxazine maleate]",99.1%,28.8 µM,98.5%,
"CCOc1ccccc1OC[C@@H]1CNCCO1 [Example 15, (S)-viloxazine citrate]",99.0%,40.1 µM,98.6%,
"CCOc1ccccc1OC[C@@H]1CNCCO1 [Example 16, (S)-viloxazine methanesulfonate]",98.0 → 98.0%,,98.0 → 98.0%,
